# Source: patent US20070020234A1, “Inhibition of tumor angiogenesis by combination of thrombospondin-1 and inhibitors of vascular endothelial growth factor” (priority 2003, published 2007)
# Entries after “also recorded” stand apart in the source; their conditions may differ.
# Key:
# [1] = test system: TSP-1 expression; test: Northern blot of TSP-1 expression; assay type: cell-based, human; details: for TSP-1 expression relative to basal level after inhibitor treatment: MDA-MB-231 cells (FIG. 2B/2); for TSP-1 expression in the absence of HGF/SF induction: inhibitor 24 hours, LF at 1, 3 or 9 μg/ml (FIG. 2D); for HGF/SF-induced shut off (down-regulation) of TSP-1: SK-LMS-1 and MDA-MB-231 cells, inhibitor followed by HGF/SF for 24 hours
# Experimental: (§1) FIG. 1A-1C. HGF/SF up-regulates VEGF and down-regulates TSP-1 expression in SK-LMS-1 cells (FIG. 1A) and MDA-MB-231 cells (FIG. 1B) and HUVEC cells (FIG. 1C). Total RNAs were prepared from SK-LMS-1 cells, MDA-MB-231 cells or HUVEC with or without treatment of recombinant human HGF/SF (200 units/ml) at the indicated time points after stimulation. Total RNAs were also prepared from the SK/HGF cell line, a long-term culture derivative of SK-LMS-1 cells that is autocrine for human HGF/SF (15). Northern Blot was probed with ^32P-radiolabeled TSP-1, VEGF or G3PDH cDNA fragment, respectively. For HUVEC, treatment of recombinant human HGF/SF (200 units/ml) was for 24 hours in the presence or absence of fetal bovine serum (FBS) and Northern Blot analyses were performed using ^32P-radiolabelled probe for human TSP-1, VEGF or GAPDH, respectively. TSP-1 expression in HUVEC cells was decreased in response to HGF/SF treatment. However, VEGF expression was undetectable with or without HGF/SF treatment.
# (§2) FIG. 2A: HGF/SF induces activation of MAP kinase and PI3 kinase pathways in SK-LMS-1 cells and MDA-MB-231 cells. Serum-starved cells were treated with or without DMSO (control), PD98059 (80 μM), U0126 (40 μM) or LY294002 (40 μM) for 1 hour, followed by HGF/SF stimulation for 15 minutes (A time point good for observing all the tyrosine phosphorylation statuses). Whole cell extracts were prepared and the state of Met phosphorylation was detected by immunoprecipitation with anti-human Met antibody, followed by Western blot with anti-Phosphotyrosine (and/or anti-human Met antibody). For detection of Erk and Akt, Western blots were probed with anti-phospho p44/42 MAPK, anti-p44/42 MAPK, anti-phospho Akt (Ser473) or anti-Akt antibodies, respectively. FIG. 2B: Negative regulation of TSP-1 expression occurs primarily through the MAP kinase pathway, while positive regulation of VEGF expression occurs through MAP kinase and PI3 kinase pathway. Total RNAs were prepared from cells with or without inhibitor treatment and/or HGF/SF treatment. Northern Blot analyses were performed as described in FIG. 1A-caption. […] Up-regulation of VEGF was inhibited by PD98059, U0126 as well as LY294002. […]: VEGF but not TSP-1 expression was regulated by Stat3 signaling. Total RNAs were prepared from SK/HGF cells with or without overexpression of a dominant negative form of Stat3, Stat3 (17). […] FIG. 2D: LF increases TSP-1 and decreases VEGF expression in MDA-MB-231 human breast cancer cells. Cells were treated with or without indicated inhibitors for 24 hours and then total RNAs were prepared. Northern Blot analyses were performed using ^32P-radiolabelled probe for human TSP-1, VEGF or GAPDH, respectively.
# (§3) VEGF was also elevated in long term cultures of SK-LMS-1 cells autocrine for HGF/SF (SK/HGF, 15) (FIG. 1A). […] This effect was seen as early as 6 hours after HGF treatment and continued to 48 hours. More dramatically, TSP-1 expression was eliminated in the SK/HGF cell line.
# (§4) HGF/SF, acting through its tyrosine kinase receptor, Met, is known to activate several intracellular signaling pathways, including MAP kinase, PI3 kinase and Stat3 (1, 16). The present inventors asked which pathways might be involved in regulating VEGF and TSP-1 expression. The present inventors treated SK-LMS-1 and MDA-MB-231 cells with (or without) various inhibitors for one hour, followed by HGF/SF stimulation for 15 minutes (FIGS. 2A/1 and 2A/2). Met receptor is tyrosine-phosphorylated in response to HGF/SF, followed by the activation of downstream targets of Erk p44/42 MAPK) and Akt/PI3 kinase. […] RNA samples from SK-LMS-1 and MDA-MB-231 cells treated with individual inhibitors followed by HGF/SF treatment for 24 hours were analyzed by Northern Blot analyses. HGF/SF-induced shut off of TSP-1 was blocked by PD98059 or U0126 but was not affected by LY294002 (FIGS. 2B/1-2B/2), nor by overexpression of Stat3B, a dominant-negative form of Stat3 (FIG. 2C) (17). […]
# [2] = test system: Erk (p44/42 MAPK); test: Western blot of Erk (p44/42 MAPK) activation after HGF/SF stimulation; assay type: cell-based, human; details: for constitutive level of MAP kinase activity: MDA-MB-231 cells (FIG. 2A/2); for activation of Erk in response to HGF/SF: SK-LMS-1 and MDA-MB-231 cells, inhibitor 1 hour (PD98059 80 μM, U0126 40 μM), then HGF/SF 15 minutes
# Experimental: as §2
# HGF/SF, acting through its tyrosine kinase receptor, Met, is known to activate several intracellular signaling pathways, including MAP kinase, PI3 kinase and Stat3 (1, 16). The present inventors asked which pathways might be involved in regulating VEGF and TSP-1 expression. The present inventors treated SK-LMS-1 and MDA-MB-231 cells with (or without) various inhibitors for one hour, followed by HGF/SF stimulation for 15 minutes (FIGS. 2A/1 and 2A/2). Met receptor is tyrosine-phosphorylated in response to HGF/SF, followed by the activation of downstream targets of Erk p44/42 MAPK) and Akt/PI3 kinase. […] RNA samples from SK-LMS-1 and MDA-MB-231 cells treated with individual inhibitors followed by HGF/SF treatment for 24 hours were analyzed by Northern Blot analyses. HGF/SF-induced shut off of TSP-1 was blocked by PD98059 or U0126 but was not affected by LY294002 (FIGS. 2B/1-2B/2), nor by overexpression of Stat3B, a dominant-negative form of Stat3 (FIG. 2C) (17). […] In MDA-MB-231 cells, the present inventors observed a dramatic effect from the MEK MAP kinase inhibitors on TSP-1 (FIG. 2B/2).
# [3] = test system: VEGF expression; test: Northern blot of VEGF expression; assay type: cell-based, human; details: for VEGF expression in the absence of HGF/SF induction: inhibitor 24 hours, LF at 1, 3 or 9 μg/ml (FIG. 2D); for expression of VEGF induced by HGF/SF: inhibitor followed by HGF/SF for 24 hours; for VEGF expression (up-regulation by HGF/SF): SK-LMS-1 and MDA-MB-231 cells (FIGS. 2B/1, 2B/2); for VEGF expression after HGF/SF treatment: HGF/SF 200 units/ml
# Experimental: as §1, §2, §3, §4
# [4] = test system: SK/HGF cells; test: Cell proliferation and anchorage-independent growth in vitro; assay type: cell-based, human; details: TSP-1 overexpression compared with parental SK/HGF cells in vitro
# Description: FIGS. 5A and 5B are graphs showing that overexpression of TSP-1 has no effect on cell proliferation or anchorage-independent growth compared the parental SK/HGF cells in vitro.
# TSP-1 was overexpressed in SK/HGF cells to generate SK/HGF-TSP1 cells (FIG. 3A). Overexpression of TSP-1 has no effect on cell proliferation or anchorage-independent growth compared the parental SK/HGF cells in vitro (FIGS. 5A-5B). To test whether TSP-1 influences tumorigenicity, the present inventors SK/HGF and SK/HGF-TSP1 cells were subcutaneously implanted in athymic nude mice, and their tumor growth rates were compared. At early times, no growth differences were observed between the SK/HGF and SK/HGF-TSP1 groups. However, when the tumors grew to a certain size, differences between became more apparent (Student's t test p<0.025). […] TSP-1 protein expression was confirmed in the SK/HGF-TSP1 tumor group by Western blot analysis (FIG. 3D).
# [5] = test system: SK/HGF tumor xenografts; test: Subcutaneous tumor growth of SK/HGF-TSP1 versus SK/HGF cells in athymic nude mice; assay type: in vivo; details: TSP-1 overexpression in SK/HGF cells implanted subcutaneously in athymic nude mice; p<0.025
# Description: FIG. 3A-3D. TSP-1 inhibits HGF/SF-induced tumor growth in vivo. FIG. 3A: TSP-1 was ectopically expressed in SK/HGF cells, establishing the SK/HGF-TSP 1 cell line. The expression of TSP-1 in SK/HGF-TSP1 cells was confirmed by Northern blot analysis. FIG. 3B: Tumor growth of SK-LMS cells and the influence of TSP-1 overexpression. SK-LMS-1 control cells, SK/HGF control cells and SK/HGF-TSP 1 cells (clone 26) were subcutaneously implanted in athymic nude mice, respectively. The animals were monitored for tumor growth and tumor volumes (Tvol) were measured twice a week. The Tvol values represent an average of four mice for each group (P<0.025). FIG. 3C: Visualization of the tumors at sacrifice. FIG. 3D: TSP-1 protein in tumor xenografts is derived from SK/HGF-TSP1 cells. Cell extracts were prepared from fresh tumors and TSP-1 protein was detected by anti-TSP-1 antibody under denatured condition.
# TSP-1 was overexpressed in SK/HGF cells to generate SK/HGF-TSP1 cells (FIG. 3A). Overexpression of TSP-1 has no effect on cell proliferation or anchorage-independent growth compared the parental SK/HGF cells in vitro (FIGS. 5A-5B). To test whether TSP-1 influences tumorigenicity, the present inventors SK/HGF and SK/HGF-TSP1 cells were subcutaneously implanted in athymic nude mice, and their tumor growth rates were compared. […]
# [6] = test system: tumor angiogenesis (CD31-positive vessels); test: CD31 immunohistochemical staining of blood vessels in tumor sections; assay type: in vivo, athymic nude mice; details: SK/HGF-TSP1 versus SK/HGF tumors; P<0.01
# Description: FIGS. 4A and 4B/1-4B/6 are a graph and photomicrographs showing that TSP-1 inhibits HGF/SF-induced tumor angiogenesis. […] Three fields (10× magnification) from each stained tumor section were photographed and the numbers of CD31-positive vessels (brown staining) were scored. The numbers represent the average number of blood vessels in sections from four tumors for each group (P<0.01).
# To test whether the inhibition of tumor growth by TSP-1 was due to an extrinsic effect by preventing tumor angiogenesis, the present inventors performed immunohistochemical staining using antibodies against mouse endothelial cell surface marker CD31 to detect the number of blood vessels in SK/HGF and SK/HGF-TSP-1 tumor sections.
# [7] = test system: VEGF; details: cited from earlier work
# [8] = HUVEC, HGF/SF 200 units/ml for 24 hours
Molecule,TSP-1 expression relative to basal level after inhibitor treatment [1],TSP-1 expression in the absence of HGF/SF induction ([1]; MDA-MB-231 cells),HGF/SF-induced shut off (down-regulation) of TSP-1 [1],constitutive level of MAP kinase activity [2],activation of Erk in response to HGF/SF [2],VEGF expression in the absence of HGF/SF induction ([3]; MDA-MB-231 cells),expression of VEGF induced by HGF/SF ([3]; MDA-MB-231 cells),VEGF expression (up-regulation by HGF/SF) [3],expression of VEGF induced by HGF/SF ([3]; SK-LMS-1 cells),other results
COc1cccc(-c2cc(=O)c3ccccc3o2)c1N [PD98059],higher than the basal level,up-regulation of TSP-1,blocked; also recorded: inhibited,inhibited,blocked the activation of Erk,down-regulation of VEGF,suppressed,inhibited,only slightly,–
N#CC(=C(/N)Sc1ccccc1N)/C(C#N)=C(\N)Sc1ccccc1N [U0126],higher than the basal level,up-regulation of TSP-1,blocked; also recorded: inhibited,inhibited,blocked the activation of Erk,down-regulation of VEGF,suppressed,inhibited,only slightly,–
"HGF/SF: recombinant human hepatocyte growth factor/scatter factor, ligand of the Met receptor",–,–,–,–,–,–,–,–,–,"TSP-1 expression after HGF/SF treatment [1, 8]: decreased; TSP-1 expression after HGF/SF treatment ([1]; MDA-MB-231 cells, 24 and 48 hours after HGF treatment): down-regulation of TSP-1; TSP-1 expression after HGF/SF treatment ([1]; SK-LMS-1 cells, HGF/SF 200 units/ml, 6 to 48 hours): significant decrease in TSP-1 expression; VEGF expression with or without HGF/SF treatment [3, 8]: undetectable; VEGF expression after HGF/SF treatment ([3]; MDA-MB-231 cells, persisted for 48 hours): levels of VEGF increased; VEGF expression after HGF/SF treatment ([3]; SK-LMS-1 cells, up to 48 hours): induced VEGF"
"TSP-1: thrombospondin-1, angiogenesis antagonist; tested by ectopic overexpression in SK/HGF cells",–,–,–,–,–,–,–,–,–,cell proliferation or anchorage-independent growth [4]: no effect; HGF/SF-dependent tumor growth [5]: partially inhibited; neovascularization (number of CD31-positive vessels) in tumors [6]: Decreased neovascularization
VEGF-Trap: soluble decoy VEGF receptor fused to IgG; high-affinity VEGF blocker,–,–,–,–,–,–,–,–,–,"tumor growth and vascularization in vivo ([7]; Holash et al.): effectively suppressed tumor growth and vascularization; vasculature in established xenografts ([7]; Huang et al., followed by tumor regression including lung micrometastases): abolished mature, preexisting vasculature"
